Results: US20150079207A1, “Method for manufacturing Smilax China L root extract having increased active ingredients and beverage composition containing the extract fordetoxification” (priority 2013, published 2015)

Legend:
Format in all cases: cell-based
HepG2 cells [1] = assay: Conversion rate of nicotine into cotinine (cotinine quantitative assay); conditions: HepG2 after 1 mM nicotine; 50, 100, 250 μM (mixture 50, 100 μM); 10-120 min
Procedure: HepG2 (passage #99-100) cells kindly provided from the Korean Cell Line Bank were sub-cultured, divided into a 96 well plate, and then cultured under conditions of 5% CO2 and 37° C. until the cells reached 100% confluence, and the medium was removed. Thereafter, the HepG2 cells were cultured for a day in a medium containing 1 mM nicotine. […] Subsequently, the cultured cells were dividedly treated with trypsin-EDTA, and detached, and centrifuged to collect a cell pellet. The cell pellet was suspended in 100 μl of PBS, and homogenated for 30 seconds using an ultrasonicator. 100 μl of a 4M sodium acetate buffer (pH 4.7), 40 μl of 1.5M potassium cyanide, 40 μl of 0.4M chloramine T, and 200 μl of 78 mM barbituric acid (in acetone/water (50/50)) were sequentially added to the homogenated cells, mixed for 10 seconds, and then reacted at room temperature for 15 minutes. Then, 40 μl of 1M sodium metabisulfite was added to the reaction mixture to stop the reaction. Then, the reaction mixture was measured for absorbance at a wavelength of 490 nm using a multi-microplate reader (Thermo scientific), and the absorbance of the reaction mixture was quantified by comparison to the standard curve of a cotinine sample.

HepG2 cells [2] = assay: Inhibition of formation of oxidatively damaged adducts caused by nicotine (DCFH-DA assay); conditions: 50, 100, 250 μM (mixture 50, 100 μM) 2 h, then nicotine at IC50 24 h
Text: When non-polar, uncharged DCFH-DA easily enters the cytoplasm through cell membranes, DCFH-DA is converted into 2′,7′-dichlorofluorescin (DCFH) showing no fluorescence by an intracellular enzyme, esterase, and DCFH is then oxidized into 2′,7′-dichlorofluorescein (DCF) showing fluorescence by various active oxygen produced in the cells. Since the measured fluorescence intensity is in proportion to a degree of intracellular oxidation, an effect of the index materials on oxidative damage of liver cells by nicotine was evaluated using the principle.
Thereafter, the experimental groups and the control were treated with nicotine at an IC50 concentration, and cultured for 24 hours. Trypsin-EDTA was divided, and the cells were detached, and treated with a 5 μM DCFH-DA reagent. After 30 minutes, the fluorescence was measured at an excitation wavelength of 488 nm and an emission wavelength of 525 nm using a multi-microplate reader (Thermo scientific).

HepG2 cells [3] = assay: Inhibition of formation of oxidatively damaged adducts caused by alcohol (DCFH-DA assay); conditions: 50, 100, 250 μM 2 h, then ethanol at IC50 24 h
Procedure: The DCFH-DA assay was generally described with reference to Evaluation Example 3.
Thereafter, the experimental groups and the control were treated with ethanol at an IC50 concentration, and cultured for 24 hours. Then, trypsin-EDTA was divided, and the cells were detached, and treated with a 5 μM DCFH-DA reagent. After 30 minutes, the fluorescence was measured at an excitation wavelength of 488 nm and an emission wavelength of 525 nm using a multi-microplate reader (Thermo scientific).

HepG2 cells [4] = assay: Protective effect on hepatotoxicity caused by alcohol (MTT assay); conditions: 50, 100, 250 μM 2 h, then ethanol at IC50 24 h
Procedure: The MTT assay was generally described with reference to Evaluation Example 2.
Thereafter, the experimental groups and the control were treated with an aqueous solution of ethanol (50%) at an IC50 concentration, and cultured for 24 hours. After the medium was removed, the experimental groups and the control were treated with a 3-4,5 dimethylthiazol-2,5 diphenyltetrazolium bromide (MTT) reagent, and then cultured for 4 hours. Then, the medium was removed, and the experimental groups and the control were treated with a DMSO reagent, and measured for absorbance at a wavelength of 570 nm using a multi-microplate reader (Thermo scientific). Also, the cell viability was calculated using Equation 1.

Oc1cc(O)cc(/C=C/c2ccc(O)cc2O)c1 [oxyresveratrol]
cotinine conversion rate vs nicotine-only control (HepG2 cells [1]): cotinine conversion rate increased
relative DCF fluorescence intensity (oxidatively damaged adducts by nicotine) vs nicotine-only control (HepG2 cells [2]): relative DCF fluorescence intensity tended to decrease
relative DCF fluorescence intensity (oxidatively damaged adducts by alcohol) vs alcohol-only control (HepG2 cells [3]): relative DCF fluorescence intensity tended to decrease
absorbance (MTT, cell viability) vs alcohol-only control (HepG2 cells [4]): absorbance increased as the concentration of the index material increased

Oc1ccc(C=Cc2cc(O)cc(O)c2)cc1 [resveratrol]
cotinine conversion rate vs nicotine-only control (HepG2 cells [1]): cotinine conversion rate increased
absorbance (MTT, cell viability) vs alcohol-only control (HepG2 cells [4]): absorbance increased as the concentration of the index material increased
